Measurements published in PubChem BioAssay (NCI).
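Method: 48-hour compound exposure of cells in 96-well plates, five concentrations, linear interpolation of endpoints. Here, GI50 denotes the concentration required for 50% inhibition of growth. TGI marks complete inhibition of growth.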

What was measured:
Test in all cases: DTP human tumour cell line panel, 48 h
[1] = test system: EKVX NSCLC
[2] = test system: SR leukemia
[3] = test system: SK-MEL-28 melanoma
[4] = test system: SF-268 CNS
[5] = test system: HOP-92 NSCLC
[6] = test system: UACC-62 melanoma
[7] = test system: HCC-2998 colon
[8] = test system: SK-MEL-2 melanoma
[9] = test system: OVCAR-5 ovarian
[10] = test system: MALME-3M melanoma

SMILES | TGI [1] | TGI [2] | TGI [3] | TGI [4] | TGI [5] | TGI [6] | TGI [7] | TGI [8] | GI50 [1] | GI50 [3] | GI50 [4] | GI50 [5] | GI50 [6] | GI50 [9] | TGI [9] | GI50 [8] | TGI [10] | GI50 [2] | GI50 [7] | GI50 [10]
COc1c(NC(C)=O)cc(C)cc1NC(C)=O | > 100 µM | > 100 µM | > 100 µM | > 100 µM | > 100 µM | > 100 µM | > 100 µM | > 100 µM | – | – | – | – | – | – | – | – | – | – | – | –
Oc1ccc(O)c(-c2cc(-c3ccccc3)nn2-c2ccccc2)c1 | 37.7 µM | – | > 100 µM | 64.8 µM | > 100 µM | 44.9 µM | – | > 100 µM | 16.9 µM | 40.8 µM | 16.4 µM | 88.9 µM | 11.9 µM | 10.6 µM | 27 µM | 34 µM | – | – | – | –
COC(=O)C1=C(C(=O)OC)C23CC1C1C(C(=O)OC)=C(C(=O)OC)C12C1C=CC3C2C(=O)OC(=O)C21 (stereo not drawn) | > 100 µM | – | > 100 µM | > 100 µM | > 100 µM | > 100 µM | > 100 µM | > 100 µM | – | – | – | – | – | – | > 100 µM | – | > 100 µM | – | – | –
COc1ccc(C(=O)C(C(=O)C(=O)Nc2ccc(Cl)c(Cl)c2)c2ccc(OC)cc2)cc1 (stereo not drawn) | > 100 µM | – | > 100 µM | > 100 µM | > 100 µM | > 100 µM | > 100 µM | > 100 µM | – | – | – | – | – | – | > 100 µM | – | > 100 µM | – | – | –
Cn1cc(C2=C(c3cccnc3)C(=O)NC2=O)c2ccccc21 | – | > 25 µM | > 25 µM | > 25 µM | – | > 25 µM | > 25 µM | 25 µM | – | > 25 µM | > 25 µM | – | > 25 µM | > 25 µM | > 25 µM | > 13 µM | > 25 µM | 15.5 µM | > 25 µM | > 25 µM
Cc1cc(C2=NNC(=O)Cc3cc4c(cc32)OCCO4)cc(C)c1N | > 100 µM | > 100 µM | > 100 µM | > 100 µM | > 100 µM | > 100 µM | 44 µM | > 100 µM | 29.7 µM | 5.37 µM | 4.21 µM | 3.54 µM | 3.59 µM | 8.02 µM | > 100 µM | 3.42 µM | – | 0.31 µM | 3.26 µM | –
CC(C)(C)CC(C)(C)c1cc2c(O)c(c1)Cc1cc(C(C)(C)CC(C)(C)C)cc(c1O)Cc1cc(C(C)(C)CC(C)(C)C)cc(c1O)Cc1cc(C(C)(C)CC(C)(C)C)cc(c1O)Cc1cc(C(C)(C)CC(C)(C)C)cc(c1O)Cc1cc(C(C)(C)CC(C)(C)C)cc(c1O)C2 | > 100 µM | – | > 100 µM | > 100 µM | > 100 µM | > 100 µM | > 100 µM | > 100 µM | – | – | – | – | – | – | > 100 µM | – | > 100 µM | – | – | –
O=S(=O)(O)c1ccc(-c2nnc(-c3ccccn3)nc2-c2ccc(S(=O)(=O)O)o2)o1 | > 100 µM | > 100 µM | > 100 µM | > 100 µM | > 100 µM | > 100 µM | – | > 100 µM | – | – | – | – | – | – | > 100 µM | – | > 100 µM | – | – | –
CCOC(=O)C1=C(O)CSC1=Nc1ccccc1 | – | > 100 µM | > 100 µM | > 100 µM | > 100 µM | > 100 µM | > 100 µM | > 100 µM | – | – | – | – | – | – | > 100 µM | – | > 100 µM | – | – | –
CN[C@@H](C)[C@@H](N)c1ccccc1 | > 100 µM | – | > 100 µM | – | > 100 µM | > 100 µM | > 100 µM | – | – | – | – | – | – | – | – | – | > 100 µM | – | – | –
Cn1nnnc1N/N=C/c1ccccc1 | > 10 µM | > 10 µM | > 10 µM | > 10 µM | > 10 µM | > 10 µM | > 10 µM | > 10 µM | – | – | – | – | – | – | > 10 µM | – | – | – | – | –
O=C1C2=Nc3ccccc3C(O)N2c2ccccc21 (stereo not drawn) | > 100 µM | > 100 µM | > 68.7 µM | > 100 µM | > 100 µM | 12.9 µM | > 94.3 µM | – | – | – | – | – | – | – | > 100 µM | – | 29.8 µM | – | – | –
COc1ccc(N=Nc2c(-c3ccccc3)nn(C(=O)CC(=O)Nc3cccc(Cl)c3)c2-c2ccccc2)cc1 | > 100 µM | – | > 100 µM | > 100 µM | > 100 µM | > 100 µM | 80.4 µM | > 100 µM | – | – | – | – | – | – | > 100 µM | – | > 100 µM | – | – | –
CCOC(=O)C1=C(C)NC2SC(=O)/C(=C\c3ccccc3O)N2C1c1ccccc1 (stereo not drawn) | > 100 µM | – | 56.8 µM | > 100 µM | 43.2 µM | 41.8 µM | 64.8 µM | 59.3 µM | 34.1 µM | 20.5 µM | 29.7 µM | 20.8 µM | 18 µM | 63 µM | > 100 µM | 22.2 µM | – | – | 26.5 µM | –
COc1cccc2c1-c1c(c3ccc([N+](=O)[O-])cc3c(=O)n1CCCCl)C2=O | > 50 µM | > 50 µM | > 50 µM | 3.96 µM | – | 18.8 µM | – | > 50 µM | > 50 µM | > 50 µM | 0.00993 µM | – | 2.42 µM | > 50 µM | > 50 µM | 48.8 µM | > 50 µM | 0.202 µM | – | 7.06 µM
Cc1c(C(=O)C/C(=N/NC(=O)C[n+]2ccccc2)C(=O)Nc2ccccc2)[n+](=O)c2ccccc2n1O | > 100 µM | > 100 µM | > 100 µM | > 100 µM | – | > 100 µM | > 100 µM | > 100 µM | – | – | – | – | – | – | > 100 µM | – | > 100 µM | – | – | –
C=CC[P+](c1ccccc1)(c1ccccc1)c1ccccc1 | – | > 100 µM | > 100 µM | > 100 µM | – | > 100 µM | > 100 µM | 16.4 µM | – | 11.3 µM | 5.46 µM | – | 2.69 µM | 13.4 µM | > 100 µM | 3.36 µM | – | 1.45 µM | 3.19 µM | –
COC(=O)c1ccc(NC(=O)Nc2ccc3oc(=O)c4ccccc4c3c2)cc1 | > 100 µM | > 100 µM | > 100 µM | 71.2 µM | 80.9 µM | > 100 µM | 74 µM | – | > 100 µM | 76 µM | 26.2 µM | 28.5 µM | 82.2 µM | 97.7 µM | > 100 µM | – | 73.7 µM | 10.9 µM | 27.1 µM | 28.7 µM
Cn1c(O)c(C(/C=C/c2ccccc2)=NCCN=C(/C=C/c2ccccc2)c2c(O)n(C)c(=O)n(C)c2=O)c(=O)n(C)c1=O | > 50 µM | – | 33.6 µM | > 50 µM | 32.5 µM | > 50 µM | – | > 50 µM | 25.8 µM | 10.2 µM | 15.1 µM | 12 µM | 19.2 µM | 16.8 µM | > 50 µM | 27.3 µM | > 50 µM | – | – | 30.9 µM
